Starred links: 1 amine or outer side, 2 acyl side, 3 side chain; linkers in the order of their positions; H or OH if unused. Positions of bridges follow the written chain, without caps; N, C: chain ends. Non-standard residues stand in square brackets, D forms with d. Residues, ends and D or L forms follow the SMILES beside them. Groups on a side chain read outwards from the residue. *: point of attachment. Phe(3-CH2NH2) = O=C([C@H](Cc1cccc(CN[*:3])c1)N[*:1])[*:2]; Ala(imidazol-2-yl) = N[C@@H](Cc1ncc[nH]1)C(=O)O; Trp(5-F) = N[C@@H](Cc1c[nH]c2ccc(F)cc12)C(=O)O; Phe(4-CH2NH2) = NCc1ccc(C[C@H](N)C(=O)O)cc1; X3 = O=C(CCSCc1cc(F)cc(CSCCN[*:1])c1)[*:2]; Heptanedioyl = O=C(CCCCCC(=O)[*:2])[*:1]; γGlu = O=C(O)[C@H](CCC(=O)[*:2])N[*:1]; mXylylene = c1cc(C[*:1])cc(C[*:2])c1; Adipoyl = O=C(CCCCC(=O)[*:2])[*:1]; Glutaryl = O=C(CCCC(=O)[*:2])[*:1]; Lys(Me2) = CN(C)CCCC[C@H](N)C(=O)O; Palmitoyl = CCCCCCCCCCCCCCCC(=O)*; αMeP = C[C@@]1(C(=O)O)CCCN1; AEEEA = NCCOCCOCCOCC(=O)O; PEG2 = NCCOCCOCCC(=O)O; AEEA = NCCOCCOCC(=O)O; Mpa = O=C(O)CCS
How the values were obtained:
PCSK9 [1] = biological target: T1, PCSK9 (Homo sapiens (Human), UniProt Q8NBP7); assay: PCSK9 Alexa FRET Standard assay (displacement of AlexaFluor647 tagged cyclic peptide Reagent A); type: binding; conditions: PCSK9 Alexa FRET Standard assay, 0.5 nM PCSK9, 20 nM AF cyclic peptide Reagent A; read-out: IC50
T1 sequence (Q8NBP7 153-692): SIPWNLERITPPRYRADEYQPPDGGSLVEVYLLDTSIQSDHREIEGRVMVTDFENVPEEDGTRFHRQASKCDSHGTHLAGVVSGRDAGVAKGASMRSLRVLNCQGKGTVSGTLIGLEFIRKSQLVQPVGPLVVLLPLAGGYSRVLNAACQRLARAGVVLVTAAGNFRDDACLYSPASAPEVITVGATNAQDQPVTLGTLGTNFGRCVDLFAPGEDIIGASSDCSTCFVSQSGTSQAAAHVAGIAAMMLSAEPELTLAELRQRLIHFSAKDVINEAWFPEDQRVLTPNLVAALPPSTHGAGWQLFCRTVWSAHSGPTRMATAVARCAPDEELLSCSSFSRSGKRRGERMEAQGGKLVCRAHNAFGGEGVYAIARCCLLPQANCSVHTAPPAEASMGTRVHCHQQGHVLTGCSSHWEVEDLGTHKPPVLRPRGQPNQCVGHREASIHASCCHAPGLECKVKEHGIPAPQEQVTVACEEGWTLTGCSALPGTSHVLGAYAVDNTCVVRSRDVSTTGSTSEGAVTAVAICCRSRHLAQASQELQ
Method in brief: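 TR-FRET displacement: 0.5 nM biotinylated PCSK9 with 1.25 nM Strep-Eu and 20 nM AlexaFluor-tagged cyclic peptide (final) in 50 mM HEPES pH 7.4, 0.15 M NaCl, 5 mM CaCl2, 0.01% BSA, 0.01% P20, ≥2 h at room temperature. IC50 from sigmoidal fit, converted to Ki via peptide KD; falling Eu counts flagged false positives.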

PCSK9 [2] = biological target: T1, PCSK9; assay: PCSK9 Alexa FRET Plus assay (displacement of AlexaFluor647 tagged cyclic peptide Reagent B); type: binding; conditions: Alexa FRET Plus, 0.5 nM PCSK9, 960 nM AF cyclic peptide Reagent B; read-out: IC50
Method in brief: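 TR-FRET displacement with final 0.5 nM biotinylated PCSK9, 1.25 nM Strep-Eu and 960 nM AlexaFluor-tagged cyclic peptide in HEPES pH 7.4, NaCl, CaCl2, BSA, P20; ≥2 h at room temperature. IC50 from sigmoidal fit, converted to Ki using peptide KD. Falling europium counts flagged false positives.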

IC50 (PCSK9 [1]) [nM]	IC50 (PCSK9 [2]) [nM]	Compound
0.11 to 100	0.1 to 100	CCCCCCCCCCCCCCCC(=O)N[C@@H](CCC(=O)NCCOCCOCC(=O)NCCOCCOCC(=O)NCCCC[C@@H]1NC(=O)[C@H](CCCCN)NC(=O)CCSCc2cccc(c2)CSC[C@@H](C(N)=O)NC(=O)[C@]2(C)CCCN2C(=O)[C@H](Cc2ccc(O)cc2)NC(=O)[C@H](Cc2cnc[nH]2)NC(=O)[C@H](CC(=O)O)NC(=O)[C@H](Cc2c[nH]c3ccc(F)cc23)NC(=O)[C@H](Cc2c[nH]c3ccc(F)cc23)NC1=O)C(=O)O [Compound 452] ([Mpa]KK([AEEA-AEEA-γGlu-Palmitoyl])[Trp(5-F)][Trp(5-F)]DHY[αMeP]C-NH2; linker 1-10 via mXylylene)
0.11 to 100	0.1 to 100	CCCCCCCCCCCCCCCC(=O)N[C@@H](CCC(=O)NCCOCCOCC(=O)NCCOCCOCC(=O)NCc1ccc(C[C@@H]2NC(=O)[C@@H](C)NC(=O)[C@H](CCCCN)NC(=O)CCSCc3cccc(c3)CSC[C@@H](C(N)=O)NC(=O)[C@]3(C)CCCN3C(=O)[C@H](Cc3ccc(O)cc3)NC(=O)[C@H](Cc3cnc[nH]3)NC(=O)[C@H](CC(=O)O)NC(=O)[C@H](Cc3c[nH]c4ccc(F)cc34)NC2=O)cc1)C(=O)O [Compound 453] ([Mpa]K[dA][Phe(4-CH2NH2)]([AEEA-AEEA-γGlu-Palmitoyl])[Trp(5-F)]DHY[αMeP]C-NH2; linker 1-10 via mXylylene)
0.11 to 100	100 to 500	CCCCCCCCCCCCCCCC(=O)N[C@@H](CCC(=O)NCCOCCOCC(=O)NCCOCCOCC(=O)NCc1cccc(C[C@@H]2NC(=O)[C@@H](C)NC(=O)[C@H](CCCCN)NC(=O)CCSCc3cccc(c3)CSC[C@@H](C(N)=O)NC(=O)[C@]3(C)CCCN3C(=O)[C@H](Cc3ccc(O)cc3)NC(=O)[C@H](Cc3cnc[nH]3)NC(=O)[C@H](CC(=O)O)NC(=O)[C@H](Cc3c[nH]c4ccc(F)cc34)NC2=O)c1)C(=O)O [Compound 454] ([Mpa]K[dA][Phe(3-CH2NH2)]([AEEA-AEEA-γGlu-Palmitoyl])[Trp(5-F)]DHY[αMeP]C-NH2; linker 1-10 via mXylylene)
21000 to 50000	500 to 5000	CCCCCCCCCCCCCCCC(=O)N[C@@H](CCC(=O)NCCOCCOCC(=O)NCCOCCOCC(=O)NCCCC[C@@H]1NC(=O)CCSCc2cccc(c2)CSC[C@@H](C(N)=O)NC(=O)[C@]2(C)CCCN2C(=O)[C@H](Cc2ccc(O)cc2)NC(=O)[C@H](Cc2cnc[nH]2)NC(=O)[C@H](CC(=O)O)NC(=O)[C@H](Cc2c[nH]c3ccc(F)cc23)NC(=O)[C@H](Cc2c[nH]c3ccc(F)cc23)NC(=O)[C@@H](C)NC1=O)C(=O)O [Compound 456] ([Mpa]K([AEEA-AEEA-γGlu-Palmitoyl])[dA][Trp(5-F)][Trp(5-F)]DHY[αMeP]C-NH2; linker 1-10 via mXylylene)
21000 to 50000	500 to 5000	NC(=O)[C@@H]1Cc2cccc(c2)CNC(=O)CCCC(=O)NCC(=O)N[C@@H](Cc2c[nH]c3ccc(F)cc23)C(=O)N[C@@H](Cc2c[nH]c3ccc(F)cc23)C(=O)N[C@@H](CC(=O)O)C(=O)N[C@@H](Cc2ncc[nH]2)C(=O)N[C@@H](Cc2ccc(O)cc2)C(=O)N1 [Compound 458] (G[Trp(5-F)][Trp(5-F)]D[Ala(imidazol-2-yl)]Y[Phe(3-CH2NH2)]-NH2; linker N-7 via Glutaryl)
21000 to 50000	500 to 5000	CCCc1cccc(C[C@@H]2NC(=O)[C@@H](C)NC(=O)[C@H](C)NC(=O)CCSCc3cccc(c3)CSCCNC(=O)[C@]3(C)CCCN3C(=O)[C@H](Cc3ccc(OC)cc3)NC[C@H]([C@@H](C)OC)NC(=O)[C@@H]3[C@@H](O)CCN3C(=O)[C@H](Cc3c[nH]c4ccc(F)cc34)NC2=O)c1 [Compound 459]
100 to 1000	500 to 5000	COc1ccc(C[C@@H]2NC(=O)[C@H](Cc3ncc[nH]3)NC(=O)[C@H](CC(=O)O)NC(=O)[C@H](Cc3c[nH]c4ccc(F)cc34)NC(=O)[C@H](Cc3c[nH]c4ccc(F)cc34)NC(=O)[C@@H](C)NC(=O)[C@H](CCCCN(C)C)NC(=O)CCSCc3cc(F)cc(c3)CSCCNC(=O)[C@]3(C)CCCN3C2=O)cc1 [Compound 466] (cyclo(D[Ala(imidazol-2-yl)]Y(Me)[αMeP][X3][Lys(Me2)][dA][Trp(5-F)][Trp(5-F)]))
21000 to 50000	500 to 5000	CCCCCCCCCCCCCCCC(=O)N[C@@H](CCC(=O)NCCOCCOCCC(=O)NCCOCCOCC(=O)NCCCC[C@H](NC(=O)COCCOCCOCCNC(=O)[C@@H]1CSCc2cccc(c2)CSCCC(=O)N[C@@H](CCCCN)C(=O)N[C@H](C)C(=O)N[C@@H](Cc2c[nH]c3ccc(F)cc23)C(=O)N[C@@H](Cc2c[nH]c3ccc(F)cc23)C(=O)N[C@@H](CC(=O)O)C(=O)N[C@@H](Cc2cnc[nH]2)C(=O)N[C@@H](Cc2ccc(O)cc2)C(=O)N2CCC[C@@]2(C)C(=O)N1)C(N)=O)C(=O)O [Compound 473] ([Mpa]K[dA][Trp(5-F)][Trp(5-F)]DHY[αMeP]C[AEEEA]K([AEEA-PEG2-γGlu-Palmitoyl])-NH2; linker 1-10 via mXylylene)
1000 to 12100	500 to 5000	CCCCCCCCCCCCCCCC(=O)N[C@@H](CCC(=O)NCCOCCOCCC(=O)NCCOCCOCC(=O)NCCCC[C@H](NC(=O)COCCOCCOCCOCCOCCOCCOCCOCCOCCOCCOCCOCCNC(=O)[C@@H]1CSCc2cccc(c2)CSCCC(=O)N[C@@H](CCCCN)C(=O)N[C@H](C)C(=O)N[C@@H](Cc2c[nH]c3ccc(F)cc23)C(=O)N[C@@H](Cc2c[nH]c3ccc(F)cc23)C(=O)N[C@@H](CC(=O)O)C(=O)N[C@@H](Cc2cnc[nH]2)C(=O)N[C@@H](Cc2ccc(O)cc2)C(=O)N2CCC[C@@]2(C)C(=O)N1)C(N)=O)C(=O)O [Compound 474]
21000 to 50000	500 to 5000	C[C@@]12CCCN1C(=O)[C@H](Cc1ccc(O)cc1)NC(=O)[C@H]1CS[C@H]3CC[C@H](NC(=O)[C@H](Cc4c[nH]c5ccc(F)cc45)NC(=O)[C@H](Cc4c[nH]c5ccc(F)cc45)NC(=O)CNC(=O)[C@H](CCCCN)NC(=O)CCSCc4cccc(c4)CSC[C@@H](C(N)=O)NC2=O)C(=O)N31 [Compound 475]
0.11 to 100	100 to 500	CCCCCCCCCCCCCCCC(=O)N[C@@H](CCC(=O)NCCOCCOCC(=O)NCCOCCOCC(=O)NCc1cccc(C[C@@H]2NC(=O)[C@@H](C)NC(=O)[C@H](CCCCN)NC(=O)CCSCc3cccc(c3)CSC[C@@H](C(N)=O)NC(=O)[C@]3(C)CCCN3C(=O)[C@H](Cc3ccc(O)cc3)NC(=O)[C@H](Cc3cnc[nH]3)NC(=O)[C@H](CC(=O)O)NC(=O)[C@H](Cc3c[nH]c4ccc(F)cc34)NC2=O)c1)C(=O)O [Compound 476] ([Mpa]K[dA][Phe(3-CH2NH2)]([AEEA-AEEA-γGlu-Palmitoyl])[Trp(5-F)]DHY[αMeP]C-NH2; linker 1-10 via mXylylene)

Compound	IC50 (PCSK9 [1]) [nM]	IC50 (PCSK9 [2]) [nM]
NC(=O)[C@@H]1Cc2ccc(cc2)CNC(=O)CCCCCC(=O)NCC(=O)N[C@@H](Cc2c[nH]c3ccc(F)cc23)C(=O)N[C@@H](Cc2c[nH]c3ccc(F)cc23)C(=O)N[C@@H](CC(=O)O)C(=O)N[C@@H](Cc2cnc[nH]2)C(=O)N[C@@H](Cc2ccc(O)cc2)C(=O)N1 [Compound 455] (G[Trp(5-F)][Trp(5-F)]DHY[Phe(4-CH2NH2)]-NH2; linker N-7 via Heptanedioyl)	1000 to 12100	500 to 5000
NC(=O)[C@@H]1Cc2cccc(c2)CNC(=O)CCCCC(=O)NCC(=O)N[C@@H](Cc2c[nH]c3ccc(F)cc23)C(=O)N[C@@H](Cc2c[nH]c3ccc(F)cc23)C(=O)N[C@@H](CC(=O)O)C(=O)N[C@@H](Cc2cnc[nH]2)C(=O)N[C@@H](Cc2ccc(O)cc2)C(=O)N1 [Compound 457] (G[Trp(5-F)][Trp(5-F)]DHY[Phe(3-CH2NH2)]-NH2; linker N-7 via Adipoyl)	21000 to 50000	500 to 5000

Reference: patent US11530244B2, “Cyclic polypeptides for PCSK9 inhibition” (priority 2018, dated 2022)
